In the supplement of paper PMC11208160:

Assay: recombinant UMI read abundance after kanamycin selection (control-corrected) (log10(CPM+1)); higher = more efficient recombination; extreme values may be limits of the assay; sequences stand for … in AGTGCAGAGAAAATCGGCCAGTTTTCTCTGCCTGCAGTCCGCATGCCGTGGGACCCCTTGGGTTCTAACCTGTTGCCTAGATTTATGCAGCGGACTGCCTTTCTCCCAAAGTGATAAACCGG…AGGTTGGTTTCACT; site = the 11-nt donor
In short: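 In a pooled Escherichia coli screen for the IS621 bridge recombinase, donor and donor-binding-loop pairs were each placed with a 12-nt UMI on a plasmid bearing a promoterless kanamycin gene. This library was co-electroporated with a target plasmid encoding a fixed target and T7-inducible recombinase, and cells were plated either on IPTG (0.07 mM) plus kanamycin or without selection, in two replicates each. Recombinant UMIs were PCR-amplified across the donor–target junction and sequenced, and counts were converted to CPM, averaged over replicates, scaled by control-derived factors and reported as log10(CPM+1).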
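Also: IS621 bridge recombinase in Escherichia coli cells against a fixed T5 target plasmid.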

Sequence | recombinant UMI read abundance (log10)
AGAGAGGCATGGACCGGTTTTCCCGGTAATCCGTATTTGCT (site AGAAAGGCTAG) | 2.43
AGAGAGGCATGGACCGGTTTTCCCGGTAATCCGTATTTGCT (site AGACAGGCTAG) | 0.828
AGAGAGGCATGGACCGGTTTTCCCGGTAATCCGTATTTGCT (site AGAGAGGCTAG) | 2.19
AGAGAGGCATGGACCGGTTTTCCCGGTAATCCGTATTTGCT (site AGATAGGCTAG) | 1.69
AGAGATGCATGGACCGGTTTTCCCGGTAATCCGTATTTGGG (site AGAGATGCTCC) | 1.2
AGAGCATCATGGACCGGTTTTCCCGGTAATCCGTATTTGCT (site AGAGCATCTAG) | 2.16
AGAGCATCATGGACCGGTTTTCCCGGTAATCCGTATTTGCT (site CGATCATCTAG) | 0
AGAGCTTCATGGACCGGTTTTCCCGGTAATCCGTATTTGGA (site AGAGCTTCTTC) | 2.31
AGAGTATCATGGACCGGTTTTCCCGGTAATCCGTATTTGAA (site ACAGTATCTTG) | 2.21
AGAGTATCATGGACCGGTTTTCCCGGTAATCCGTATTTGAA (site AGAGTATCTTT) | 3.15
AGAGTGGCATGGACCGGTTTTCCCGGTAATCCGTATTTGGT (site AGAGTGGCTAC) | 1.47
AGAGTGGCATGGACCGGTTTTCCCGGTAATCCGTATTTGGT (site CGAGTGGCTAC) | 0.973
AGAGTGGCATGGACCGGTTTTCCCGGTAATCCGTATTTGGT (site GGAGTGGCTAC) | 0.101
AGAGTGGCATGGACCGGTTTTCCCGGTAATCCGTATTTGGT (site TGAGTGGCTAC) | 0.546
AGATATCCATGGACCGGTTTTCCCGGTAATCCGTATTTGAT (site AGATATCCTAT) | 1.12
AGATCAGCATGGACCGGTTTTCCCGGTAATCCGTATTTGCT (site AGATCAGCTAG) | 2.68
AGATCAGCATGGACCGGTTTTCCCGGTAATCCGTATTTGCT (site CGATCATCTAG) | 0
AGATCAGCATGGACCGGTTTTCCCGGTAATCCGTATTTGGG (site AGATCAGCTCC) | 0.224
AGATCAGCATGGACCGGTTTTCCCGGTAATCCGTATTTGGG (site AGCTCAGCTCC) | 0.00476
AGATCAGCATGGACCGGTTTTCCCGGTAATCCGTATTTGGG (site AGGTCAGCTCC) | 0.014
AGATCAGCATGGACCGGTTTTCCCGGTAATCCGTATTTGGG (site AGTTCAGCTCC) | 0.296
AGATCCTCATGGACCGGTTTTCCCGGTAATCCGTATTTGTT (site AGATCCTCTAA) | 2.08
AGATCGACATGGACCGGTTTTCCCGGTAATCCGTATTTGTT (site AGATCGACTAA) | 0.688
AGATCGACATGGACCGGTTTTCCCGGTAATCCGTATTTGTT (site CGATCGACTAA) | 0.0123
AGATCGACATGGACCGGTTTTCCCGGTAATCCGTATTTGTT (site GGATCGACTAA) | 0.012

Sequence | recombinant UMI read abundance (log10)
AGATCGACATGGACCGGTTTTCCCGGTAATCCGTATTTGTT (site TGATCGACTAA) | 0.00951
AGATGCGCATGGACCGGTTTTCCCGGTAATCCGTATTTGAG (site AGATGCGCTCT) | 1.86
AGATGGGCATGGACCGGTTTTCCCGGTAATCCGTATTTGGA (site AGATGGGCTTC) | 1.22
AGATTATCATGGACCGGTTTTCCCGGTAATCCGTATTTGCT (site AGATTATCTAG) | 2.71
AGATTATCATGGACCGGTTTTCCCGGTAATCCGTATTTGCT (site CGATCATCTAG) | 0
AGCAAGACATGGACCGGTTTTCCCGGTAATCCGTATTTGCT (site AGCAAGACTAG) | 1.94
AGCAAGACATGGACCGGTTTTCCCGGTAATCCGTATTTGCT (site AGGAAGACTTG) | 0
AGCAAGACATGGACCGGTTTTCCCGGTAATCCGTATTTGGA (site AGCAAGACTTC) | 1.8
AGCAAGACATGGACCGGTTTTCCCGGTAATCCGTATTTGGA (site AGGAAGACTTG) | 0
AGCAAGGCATGGACCGGTTTTCCCGGTAATCCGTATTTGCT (site AGAAAGGCTAG) | 0
AGCAAGGCATGGACCGGTTTTCCCGGTAATCCGTATTTGCT (site AGCAAGGCTAG) | 2.61
AGCAAGGCATGGACCGGTTTTCCCGGTAATCCGTATTTGCT (site AGGAAGGCTAG) | 0.0349
AGCAAGGCATGGACCGGTTTTCCCGGTAATCCGTATTTGCT (site AGTAAGGCTAG) | 0.238
AGCAATCCATGGACCGGTTTTCCCGGTAATCCGTATTTGAA (site AGCAATCCTTT) | 1.33
AGCAATCCATGGACCGGTTTTCCCGGTAATCCGTATTTGAA (site CGCAATCCTTT) | 0
AGCAATCCATGGACCGGTTTTCCCGGTAATCCGTATTTGAA (site GGCAATCCTTT) | 0.00676
AGCAATCCATGGACCGGTTTTCCCGGTAATCCGTATTTGAA (site TGCAATCCTTT) | 0.186
AGCACGTCATGGACCGGTTTTCCCGGTAATCCGTATTTGAC (site AGCACGTCTGT) | 2.28
AGCAGATCATGGACCGGTTTTCCCGGTAATCCGTATTTGAA (site AGCAGATCTTT) | 1.77
AGCAGTACATGGACCGGTTTTCCCGGTAATCCGTATTTGCG (site AGCAGTACTCG) | 1.25
AGCAGTGCATGGACCGGTTTTCCCGGTAATCCGTATTTGAG (site AGCAGTGCTCT) | 1.93
AGCATTACATGGACCGGTTTTCCCGGTAATCCGTATTTGAT (site AGCATTACTAT) | 1.01
AGCATTCCATGGACCGGTTTTCCCGGTAATCCGTATTTGTC (site AGCATTCCTGA) | 0
AGCCAAGCATGGACCGGTTTTCCCGGTAATCCGTATTTGTT (site AGCCAAGCTAA) | 1.09
AGCCAAGCATGGACCGGTTTTCCCGGTAATCCGTATTTGTT (site AGCCCAGCTAA) | 0.0145

Sequence | recombinant UMI read abundance (log10)
AGCCAAGCATGGACCGGTTTTCCCGGTAATCCGTATTTGTT (site AGCCGAGCTAA) | 0.00778
AGCCAAGCATGGACCGGTTTTCCCGGTAATCCGTATTTGTT (site AGCCTAGCTAA) | 0.0061
AGCCCAGCATGGACCGGTTTTCCCGGTAATCCGTATTTGGG (site AGCACAGCTCC) | 0.0163
AGCCCAGCATGGACCGGTTTTCCCGGTAATCCGTATTTGGG (site AGCCCAGCTCC) | 0.35
AGCCCAGCATGGACCGGTTTTCCCGGTAATCCGTATTTGGG (site AGCGCAGCTCC) | 0.0133
AGCCCAGCATGGACCGGTTTTCCCGGTAATCCGTATTTGGG (site AGCTCAGCTCC) | 0.0182
AGCCTAACATGGACCGGTTTTCCCGGTAATCCGTATTTGCT (site AGCCTAACTAG) | 0
AGCCTACCATGGACCGGTTTTCCCGGTAATCCGTATTTGTT (site AGCCTAACTAA) | 0
AGCCTACCATGGACCGGTTTTCCCGGTAATCCGTATTTGTT (site AGCCTACCTAA) | 0.0133
AGCCTACCATGGACCGGTTTTCCCGGTAATCCGTATTTGTT (site AGCCTAGCTAA) | 0.00248
AGCCTACCATGGACCGGTTTTCCCGGTAATCCGTATTTGTT (site AGCCTATCTAA) | 0.00614
AGCCTAGCATGGACCGGTTTTCCCGGTAATCCGTATTTGAT (site AGCCTAGCTAA) | 0.0122
AGCCTAGCATGGACCGGTTTTCCCGGTAATCCGTATTTGAT (site AGCCTAGCTAC) | 0.0164
AGCCTAGCATGGACCGGTTTTCCCGGTAATCCGTATTTGAT (site AGCCTAGCTAG) | 0
AGCCTAGCATGGACCGGTTTTCCCGGTAATCCGTATTTGAT (site AGCCTAGCTAT) | 0.0107
AGCCTAGCATGGACCGGTTTTCCCGGTAATCCGTATTTGTA (site AGCCTAGCTAA) | 0.0136
AGCCTAGCATGGACCGGTTTTCCCGGTAATCCGTATTTGTA (site AGCCTAGCTCA) | 0.0462
AGCCTAGCATGGACCGGTTTTCCCGGTAATCCGTATTTGTA (site AGCCTAGCTGA) | 0
AGCCTAGCATGGACCGGTTTTCCCGGTAATCCGTATTTGTA (site AGCCTAGCTTA) | 0.245
AGCCTAGCATGGACCGGTTTTCCCGGTAATCCGTATTTGTC (site AGCCTAGCTAA) | 0.199
AGCCTAGCATGGACCGGTTTTCCCGGTAATCCGTATTTGTC (site AGCCTAGCTCA) | 0.0312
AGCCTAGCATGGACCGGTTTTCCCGGTAATCCGTATTTGTC (site AGCCTAGCTGA) | 0
AGCCTAGCATGGACCGGTTTTCCCGGTAATCCGTATTTGTC (site AGCCTAGCTTA) | 0.0185
AGCCTATCATGGACCGGTTTTCCCGGTAATCCGTATTTGAC (site AGCCTATCTGT) | 0.685
AGCCTATCATGGACCGGTTTTCCCGGTAATCCGTATTTGAC (site AGCCTCTCTGT) | 0
